# Reference: US20080221132A1, “Multi-Functional Small Molecules as Anti-Proliferative Agents” (priority 2006, published 2008)
# pIC50: −log10 of the molar value. Read-outs that look alike come from different tables or passages of the source.
# How the values were obtained:
# C-Raf = C-Raf (Homo sapiens, UniProt P04049, Y340D/Y341D); test: Raf kinase assay (Upstate kit, MEK-1 substrate, dot blot), C-Raf; type: biochemical; details: TABLE 6-B (Section 6 compounds)
# Protocol: The Raf kinase assay was performed by following the protocol of Raf kinase assay kit (B-Raf, Upstate, catalog#17-359; C-Raf, Upstate, catalog#17-360) with modifications. Briefly, assay buffer, ATP, substrate and Raf kinase were mixed in a 96 well assay plate. The final kinase assay mixture contained 20 mM MOPS, pH7.2, 25 mM β-glycerol phosphate, 5 mM EGTA, 1 mM sodium orthovanadate, 1 mM DTT, 250 μM ATP and 37.5 mM magnesium chloride, 0.1 μg/well of Raf kinase, and 1 μg/well of MEK-1 substrate protein. Assay samples were incubated for 30 min at room temperature. The kinase reaction was stopped by adding EDTA, pH8 to a final concentration of 25 mM. A 10 μl of the reaction sample was spotted onto nitrocellulose filter and dot blot was performed by adding 1 μg/ml of anti-phospho-MEK-1 antibody in the blocking solution (Licor Bioscience, catalogue #927-40000). The nitrocellulose filter was subsequently incubated with secondary IRDye 800CW goat anti-rabbit antibody (Licor Bioscience, catalogue #926-32211) before reading the signal on an Odyssey imager (Licor Bioscience).
# Lung_H1703 = test: Cell proliferation assay (ATPlite), H1703; type: cell-based; details: Homo sapiens, NCI-H1703; TABLE C; 72 hours, 0.5% fetal bovine serum, ATP content; read-out: IC50 grading, Lung_H1703
# Protocol: (§1) A representative number of compounds were assayed against several different cell lines using the cell proliferation assay:
# (§2) Cell Proliferation Assay:
# (§3) Cancer cell lines were plated at 5,000 to 10,000 per well in 96-well flatted bottomed plates with various concentration of compounds. The cells were incubated with compounds for 72 hours in the presence of 0.5% of fetal bovine serum. Growth inhibition was accessed by adenosine triphosphate (ATP) content assay using Perkin Elmer ATPlite kit. ATPlite is an ATP monitoring system based on firefly luciferase. Briefly, 25 μl of mammalian cell lysis solution was added to 50 μl of phenol red-free culture medium per well to lyse the cells and stabilize the ATP. 25 μl of substrate solution was then added to the well and subsequently the luminescence was measured.
# Lung_H1975 = test: Cell proliferation assay (ATPlite), H1975; type: cell-based; details: Homo sapiens, NCI-H1975; TABLE C; 72 hours, 0.5% fetal bovine serum, ATP content; read-out: IC50 grading, Lung_H1975
# Protocol: as §1, §2, §3
# Lung_H2122 = test: Cell proliferation assay (ATPlite), H2122; type: cell-based; details: Homo sapiens, NCI-H2122; TABLE C; 72 hours, 0.5% fetal bovine serum, ATP content; read-out: IC50 grading, Lung_H2122
# Protocol: as §1, §2, §3
# Lung_H358 = test: Cell proliferation assay (ATPlite), H358; type: cell-based; details: Homo sapiens, NCI-H358; TABLE C; 72 hours, 0.5% fetal bovine serum, ATP content; read-out: IC50 grading, Lung_H358
# Protocol: as §1, §2, §3
# Lung_H460 = test: Cell proliferation assay (ATPlite), H460; type: cell-based; details: Homo sapiens, NCI-H460; TABLE C; 72 hours, 0.5% fetal bovine serum, ATP content; read-out: IC50 grading, Lung_H460
# Protocol: as §1, §2, §3
# Pancreas_BxPC3 = test: Cell proliferation assay (ATPlite), BxPC3; type: cell-based; details: Homo sapiens, BXPC-3; TABLE C; 72 hours, 0.5% fetal bovine serum, ATP content; read-out: IC50 grading, Pancreas_BxPC3
# Protocol: as §1, §2, §3
# Pancreas_Capan1 = test: Cell proliferation assay (ATPlite), Capan1; type: cell-based; details: Homo sapiens, CAPAN-1; TABLE C; 72 hours, 0.5% fetal bovine serum, ATP content; read-out: IC50 grading, Pancreas_Capan1
# Protocol: as §1, §2, §3
# [1] = tested on: Prostate_PC3 (PC-3, prostate adenocarcinoma); test: Cell proliferation assay (ATPlite), PC3; type: cell-based
# Protocol: as §1, §2
# as §3, with “The cells were incubated with compounds for 72 hours in the presence of 0.5% of fetal bovine serum.” left out
# Lung_HCC827 = test: Cell proliferation assay (ATPlite), HCC827; type: cell-based; details: Homo sapiens, TABLE C, 72 hours, 0.5% fetal bovine serum, ATP content, read-out: IC50 grading, Lung_HCC827
# Protocol: as §1, §2, §3
# [2] = tested on: Breast_MCF7 (MCF-7, breast adenocarcinoma); test: Cell proliferation assay (ATPlite), MCF7; type: cell-based; details: Homo sapiens, TABLE D, Breast adenocarcinoma, read-out: IC50 grading, MCF-7
# Protocol: as §1, §2
# as §3, with “The cells were incubated with compounds for 72 hours in the presence of 0.5% of fetal bovine serum.” left out
# [3] = tested on: Breast_MDAMB468 (MDA-MB-468, breast adenocarcinoma); test: Cell proliferation assay (ATPlite), MDA-MB-468; type: cell-based; details: Homo sapiens, TABLE D, Breast adenocarcinoma, read-out: IC50 grading, MDA-MB-468
# Protocol: as §1, §2
# as §3, with “The cells were incubated with compounds for 72 hours in the presence of 0.5% of fetal bovine serum.” left out
# [4] = tested on: Breast_SkBr3 (SKBr3, breast carcinoma); test: Cell proliferation assay (ATPlite), SkBr3; type: cell-based; details: Homo sapiens, SK-BR-3; TABLE D; Breast carcinoma; read-out: IC50 grading, SKBr3
# Protocol: as §1, §2
# as §3, with “The cells were incubated with compounds for 72 hours in the presence of 0.5% of fetal bovine serum.” left out
# [5] = tested on: Colon_HCT116 (HCT116, colon cancer); test: Cell proliferation assay (ATPlite), HCT116; type: cell-based; details: Homo sapiens, HCT-116; TABLE D; Colon cancer; read-out: IC50 grading, HCT116
# Protocol: as §1, §2
# as §3, with “The cells were incubated with compounds for 72 hours in the presence of 0.5% of fetal bovine serum.” left out
# [6] = tested on: Epidermoid_A431 (A431, epidermoid carcinoma); test: Cell proliferation assay (ATPlite), A431; type: cell-based; details: Homo sapiens, A-431; TABLE D; Epidermoid carcinoma; read-out: IC50 grading, A431
# Protocol: as §1, §2
# as §3, with “The cells were incubated with compounds for 72 hours in the presence of 0.5% of fetal bovine serum.” left out
# [7] = tested on: Prostate_22RV1 (22RV1, prostate carcinoma); test: Cell proliferation assay (ATPlite), 22RV1; type: cell-based; details: Homo sapiens, TABLE D, Prostate carcinoma, read-out: IC50 grading, 22RV1
# Protocol: as §1, §2
# as §3, with “The cells were incubated with compounds for 72 hours in the presence of 0.5% of fetal bovine serum.” left out
# [8] = tested on: MDA-MB-231 (breast adenocarcinoma); test: Cell proliferation assay (ATPlite), MDA-MB-231; type: cell-based; details: Homo sapiens, TABLE D, read-out: IC50 grading, MDA-MB-231
# Protocol: as §1, §2
# as §3, with “The cells were incubated with compounds for 72 hours in the presence of 0.5% of fetal bovine serum.” left out
# Caki-1 (renal carcinoma) = test: Cell proliferation assay (ATPlite), Caki-1; type: cell-based; details: Homo sapiens, TABLE D, read-out: IC50 grading, Caki-1
# Protocol: as §1, §2
# as §3, with “The cells were incubated with compounds for 72 hours in the presence of 0.5% of fetal bovine serum.” left out
# [9] = tested on: HCT-116 (colon) and SKBr3 (breast) cancer cells; test: Induction of apoptosis, Caspase 3&7 activity (FIG. 4); type: cell-based; details: concentration <20 μM
# A549 NSCLC xenograft = test: A549 NSCLC Xenograft Model; type: in vivo; details: FIG. 11A, 11B
# [10] = tested on: ER mRNA expression in human ER-negative breast cancer cell lines; details: Yang et al. Cancer Res., 2001; cited from earlier work
# Chain of C-Raf (P04049 whole entry Y340D/Y341D): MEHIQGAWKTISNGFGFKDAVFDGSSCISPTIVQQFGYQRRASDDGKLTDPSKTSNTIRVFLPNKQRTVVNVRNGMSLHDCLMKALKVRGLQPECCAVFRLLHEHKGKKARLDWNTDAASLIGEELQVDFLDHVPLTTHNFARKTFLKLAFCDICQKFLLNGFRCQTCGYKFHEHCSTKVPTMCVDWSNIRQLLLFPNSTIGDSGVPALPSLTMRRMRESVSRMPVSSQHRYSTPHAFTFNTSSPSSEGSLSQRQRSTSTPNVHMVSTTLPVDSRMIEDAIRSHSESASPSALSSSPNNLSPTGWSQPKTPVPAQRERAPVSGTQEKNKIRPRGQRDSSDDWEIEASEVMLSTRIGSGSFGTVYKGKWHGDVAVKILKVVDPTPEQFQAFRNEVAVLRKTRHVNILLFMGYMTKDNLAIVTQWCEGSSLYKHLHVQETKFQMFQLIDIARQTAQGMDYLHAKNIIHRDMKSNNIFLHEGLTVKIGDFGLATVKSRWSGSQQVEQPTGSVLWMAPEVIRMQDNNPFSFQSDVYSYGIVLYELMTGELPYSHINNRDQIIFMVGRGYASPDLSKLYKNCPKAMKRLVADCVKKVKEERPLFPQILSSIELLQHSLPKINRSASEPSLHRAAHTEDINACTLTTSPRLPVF
SMILES,pIC50 (Lung_H1703),pIC50 (Lung_H1975),pIC50 (Lung_H2122),pIC50 (Lung_H358),pIC50 (Lung_H460),pIC50 (Pancreas_BxPC3),pIC50 (C-Raf),pIC50 (Pancreas_Capan1),further results
O=C(CCCCCNC(=O)c1cc(Oc2ccc(NC(=O)Nc3ccc(Cl)c(C(F)(F)F)c3)cc2)ccn1)NO [Compound 5],,,,,,,5.00 to 6.00,,
COc1cc2ncnc(Nc3ccc(F)c(Cl)c3)c2cc1OCCCCCCC(=O)NO [Compound 6],6.00 to 7.00,6.00 to 7.00,6.00 to 7.00,6.00 to 7.00,6.00 to 7.00,6.00 to 7.00,,5.00 to 6.00,"pIC50 ([1]; TABLE C, 72 hours, 0.5% fetal bovine serum, ATP content, read-out: IC50 grading, Prostate_PC3): 6.00 to 7.00"
O=C(CCCCCCC(=O)Nc1cc(Oc2ccc(NC(=O)Nc3ccc(Cl)c(C(F)(F)F)c3)cc2)ccn1)NO [Compound 12],,,,,,,> 7.00,,
C#Cc1cccc(Nc2ncnc3cc(OC)c(NC(=O)CCCCCCC(=O)NO)cc23)c1 [Compound 44],5.00 to 6.00,5.00 to 6.00,5.00 to 6.00,5.00 to 6.00,5.00 to 6.00,5.00 to 6.00,,5.00 to 6.00,pIC50 (Lung_HCC827): 6.00 to 7.00
"C#Cc1cccc(Nc2ncnc3cc(OCCOC)c(OCCOC)cc23)c1 [Erlotinib, reference compound]",,,,,,,,,"pIC50 [2]: ≤ 5.30; pIC50 [3]: 5.30 to 6.30; pIC50 [4]: ≤ 5.30; pIC50 [5]: ≤ 5.30; pIC50 [6]: 5.30 to 6.30; pIC50 [7]: 6.30 to 7.30; pIC50 ([1]; TABLE D, Prostate adenocarcinoma, read-out: IC50 grading, PC-3): ≤ 5.30; pIC50 [8]: ≤ 5.30; pIC50 (Caki-1 (renal carcinoma)): 6.30 to 7.30; induction of apoptosis (Caspase 3&7 activity) [9]: inactive; effect on tumor growth / tumor size (A549 NSCLC xenograft): did not significantly affect tumor size"
"CC(/C=C/C(=O)NO)=C\[C@@H](C)C(=O)c1ccc(N(C)C)cc1 [TSA, trichostatin A]",,,,,,,,,fold increase in ER mRNA expression [10]: 5 fold
